Results published in patent US5536645A, “Nutritive medium for the culture of microorganism” (priority 1993, dated 1996).
Like-named read-outs stand apart in the source and are kept apart here.

What was measured:
Assay type in all cases: cell-based
E. faecalis = test: Equivalent MIC of antibiotics in VITEK cards, gram-positive bacteria (Table 4); details: for MIC: Enterococcus faecalis, 12 h
Procedure: (§1) With the determination of the sensitivity to antibiotics in mind, a suspension of 0.5 MF (Mac Farland) in physiological water was prepared from bacterial colonies selected in Petri dishes, reading being carried out on an ATB 1550 densitometer marketed by BIOMERIEUX (ATB trade mark). The suspension obtained was respectively diluted to 1/100th in the medium of the invention and Mueller-Hinton medium. VITEK cards (VITEK trade mark) containing different antibiotics at 10 concentrations were filled in vacuo into a VITEK apparatus marketed by BIOMERIEUX-VITEK. The cards were incubated for 12 hours in a VITEK incubator/reader marketed by BIOMERIEUX-VITEK. The growth kinetics were visualized and interpreted and an equivalent MIC was determined (equivalent MIC: equivalent minimum inhibitory concentration, that is to say the smallest concentration for which no bacterial growth is detected by the apparatus).
(§2) IST refers to the medium of the invention and MH signifies Mueller-Hinton medium.
(§3) *A range of concentration, of ratio 2, was tested for each antibiotic in
(§4) each of the abovementioned concentration margins.
(§5) S, I and R respectively signify "sensitive", "intermediate" and "resistant" with reference to the critical concentrations defined by the NCCLS (National Committee for Clinical Laboratory Standards).

S. aureus = test: microbe, parasite or virus in culture; details: for MIC: Staphylococcus aureus, read-out: Equivalent MIC
Procedure: as §1, §2, §3, §4, §5

S. epidermidis = test: microbe, parasite or virus in culture; details: for MIC: Staphylococcus epidermidis, 12 h, read-out: Equivalent MIC
Procedure: as §1, §2, §3, §4, §5

S. marcescens = test: Equivalent MIC of antibiotics in VITEK cards, gram-negative bacteria (Table 3); details: for MIC: Serratia marcescens, 12 h, read-out: Equivalent MIC
Procedure: as §1, §2, §5

P. aeruginosa = test: as above; details: for MIC: Pseudomonas aeruginosa, 12 h, read-out: Equivalent MIC
Procedure: as §1, §2, §5

K. pneumoniae = test: as above; details: for MIC: Klebsiella pneumoniae, 12 h
Procedure: as §1, §2, §5

[1] = ATCC29213, 12 h, ATCC 29213, IST medium
[2] = ATCC29213, 12 h, ATCC 29213, MH medium

CC[C@H]1OC(=O)[C@H](C)[C@@H](O[C@H]2C[C@@](C)(OC)[C@@H](O)[C@H](C)O2)[C@H](C)[C@@H](O[C@@H]2O[C@H](C)C[C@H](N(C)C)[C@H]2O)[C@](C)(O)C[C@@H](C)C(=O)[C@H](C)[C@@H](O)[C@]1(C)O [erythromicin]
NCCLS Category (E. faecalis; CDC 2073, IST medium): R
NCCLS Category (E. faecalis; CDC 2073, MH medium): R
NCCLS Category (E. faecalis; CDC 2230, IST medium): I
NCCLS Category (E. faecalis; CDC 2230, MH medium): I
MIC (E. faecalis; CDC 2073, IST medium): 16 µg/mL
MIC (E. faecalis; CDC 2073, MH medium): 16 µg/mL
MIC (E. faecalis; CDC 2230, IST medium): 4 µg/mL
MIC (E. faecalis; CDC 2230, MH medium): 4 µg/mL
NCCLS Category (S. aureus; ATCC 29213, IST medium): S
NCCLS Category (S. aureus; ATCC 29213, MH medium): S
NCCLS Category (S. aureus; CDC 2194, IST medium): R
NCCLS Category (S. aureus; CDC 2194, MH medium): R
NCCLS Category (S. aureus; CDC 2215, IST medium): S
NCCLS Category (S. aureus; CDC 2215, MH medium): S
MIC (S. aureus; 12 h, CDC 2194, IST medium): > 32 µg/mL
MIC (S. aureus; 12 h, CDC 2194, MH medium): > 32 µg/mL
MIC (S. aureus; 12 h, CDC 2215, IST medium): 0.5 µg/mL
MIC (S. aureus; 12 h, CDC 2215, MH medium): 0.5 µg/mL
MIC (S. aureus; [1]): 0.5 µg/mL
MIC (S. aureus; [2]): 0.25 µg/mL
NCCLS Category (S. epidermidis; CDC 2024, IST medium): S
NCCLS Category (S. epidermidis; CDC 2024, MH medium): S
NCCLS Category (S. epidermidis; CDC 2105, IST medium): S
NCCLS Category (S. epidermidis; CDC 2105, MH medium): S
NCCLS Category (S. epidermidis; CDC 2234, IST medium): R
NCCLS Category (S. epidermidis; CDC 2234, MH medium): R
MIC (S. epidermidis; CDC 2024, IST medium): 0.5 µg/mL
MIC (S. epidermidis; CDC 2024, MH medium): 0.25 µg/mL
MIC (S. epidermidis; CDC 2105, IST medium): 0.25 µg/mL
MIC (S. epidermidis; CDC 2105, MH medium): 0.25 µg/mL
MIC (S. epidermidis; CDC 2234, IST medium): > 32 µg/mL
MIC (S. epidermidis; CDC 2234, MH medium): > 32 µg/mL

CCN1CCN(C(=O)N[C@@H](C(=O)N[C@@H]2C(=O)N3[C@@H]2SC(C)(C)[C@@H]3C(=O)O)c2ccccc2)C(=O)C1=O [piperacillin]
NCCLS Category (S. marcescens; CDC 2021, IST medium): S
NCCLS Category (S. marcescens; CDC 2021, MH medium): S
NCCLS Category (S. marcescens; CDC 2162, IST medium): R
NCCLS Category (S. marcescens; CDC 2162, MH medium): R
MIC (S. marcescens; CDC 2021, IST medium): 2 µg/mL
MIC (S. marcescens; CDC 2021, MH medium): 2 µg/mL
MIC (S. marcescens; CDC 2162, IST medium): > 256 µg/mL
MIC (S. marcescens; CDC 2162, MH medium): > 256 µg/mL
NCCLS Category (P. aeruginosa; AP 8, IST medium): S
NCCLS Category (P. aeruginosa; AP 8, MH medium): S
NCCLS Category (P. aeruginosa; AP 13, IST medium): S
NCCLS Category (P. aeruginosa; AP 13, MH medium): S
MIC (P. aeruginosa; AP 8, IST medium): 4 µg/mL
MIC (P. aeruginosa; AP 8, MH medium): 4 µg/mL
MIC (P. aeruginosa; AP 13, IST medium): 8 to 16 µg/mL
MIC (P. aeruginosa; AP 13, MH medium): 16 µg/mL
NCCLS Category (K. pneumoniae; AP 14, MH medium): R
NCCLS Category (K. pneumoniae; CDC 2174, IST medium): S
NCCLS Category (K. pneumoniae; CDC 2174, MH medium): S
NCCLS Category (K. pneumoniae; CDC 2182, IST medium): S
NCCLS Category (K. pneumoniae; CDC 2182, MH medium): I
MIC (K. pneumoniae; AP 14, IST medium): 64 µg/mL
MIC (K. pneumoniae; AP 14, MH medium): 256 µg/mL
MIC (K. pneumoniae; CDC 2174, IST medium): 8 µg/mL
MIC (K. pneumoniae; CDC 2174, MH medium): 8 µg/mL
MIC (K. pneumoniae; CDC 2182, IST medium): 16 µg/mL
MIC (K. pneumoniae; CDC 2182, MH medium): 32 µg/mL

Cc1onc(-c2ccccc2)c1C(=O)N[C@@H]1C(=O)N2[C@@H]1SC(C)(C)[C@@H]2C(=O)O [oxacillin]
NCCLS Category (S. aureus; ATCC 29213, IST medium): S
NCCLS Category (S. aureus; ATCC 29213, MH medium): S
NCCLS Category (S. aureus; CDC 2194, IST medium): S
NCCLS Category (S. aureus; CDC 2194, MH medium): S
NCCLS Category (S. aureus; CDC 2215, IST medium): S
NCCLS Category (S. aureus; CDC 2215, MH medium): S
MIC (S. aureus; 12 h, CDC 2194, IST medium): 1 µg/mL
MIC (S. aureus; 12 h, CDC 2194, MH medium): < 0.5 µg/mL
MIC (S. aureus; 12 h, CDC 2215, IST medium): 1 µg/mL
MIC (S. aureus; 12 h, CDC 2215, MH medium): < 0.5 µg/mL
MIC (S. aureus; [1]): < 0.25 µg/mL
MIC (S. aureus; [2]): < 0.25 µg/mL
NCCLS Category (S. epidermidis; CDC 2234, IST medium): S
NCCLS Category (S. epidermidis; CDC 2234, MH medium): R
MIC (S. epidermidis; CDC 2234, IST medium): 2 µg/mL
MIC (S. epidermidis; CDC 2234, MH medium): 4 µg/mL
